{"source": "patent US20250230193A1", "about": "“CYCLIC COMPOUND HAVING SELECTIVE KRAS INHIBITORY EFFECT ON HRAS AND NRAS” (CHUGAI SEIYAKU KABUSHIKI KAISHA, priority 2022, published 2025)", "key": {"[1]": {"target": "GDP-bound NRAS wild-type protein (Homo sapiens, UniProt P01111)", "sequence (P01111 whole entry)": "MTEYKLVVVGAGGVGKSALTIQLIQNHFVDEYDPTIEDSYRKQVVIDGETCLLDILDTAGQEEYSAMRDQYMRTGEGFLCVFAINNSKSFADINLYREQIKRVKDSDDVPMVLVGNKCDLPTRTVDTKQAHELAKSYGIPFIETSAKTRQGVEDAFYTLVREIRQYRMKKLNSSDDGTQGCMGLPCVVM", "test": "Binding to NRAS by surface plasmon resonance (SPR), Single Cycle Kinetics"}, "[2]": {"target": "GDP-bound HRAS wild-type protein (Homo sapiens, UniProt P01112)", "sequence (P01112 whole entry)": "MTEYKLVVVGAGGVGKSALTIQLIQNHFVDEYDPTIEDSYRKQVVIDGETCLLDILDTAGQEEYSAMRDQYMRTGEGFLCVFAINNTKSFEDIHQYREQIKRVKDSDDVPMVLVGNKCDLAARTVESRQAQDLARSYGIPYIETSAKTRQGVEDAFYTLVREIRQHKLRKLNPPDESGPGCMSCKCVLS", "test": "Binding to HRAS by surface plasmon resonance (SPR), Single Cycle Kinetics"}, "[3]": {"settings": "KD ratio, GDP-bound NRAS wild-type vs GDP-bound KRAS wild-type, SPR"}, "[4]": {"settings": "KD ratio, GDP-bound HRAS wild-type vs GDP-bound KRAS wild-type, SPR"}}, "note": "Where a SMILES comes first, the peptide text is derived from it. Bridges are numbered along the chain shown (N, C = ends). [ ]: non-standard residue; d: D form. The star is where a group is joined. hPhe(3-Cl-4-CF3) = N[C@@H](CCc1ccc(C(F)(F)F)c(Cl)c1)C(=O)O; NPrPhe(4-CF3) = CCCN[C@@H](Cc1ccc(C(F)(F)F)cc1)C(=O)O; Piperazinyl(4-(3-oxetanyl)) = C1OCC1N1CCN(*)CC1; NMeGly(cPent) = CN[C@H](C(=O)O)C1CCCC1; Hyp = O=C(O)[C@@H]1C[C@@H](O)CN1; NMeD = CN[C@@H](CC(=O)O)C(=O)O; NMeL = CN[C@@H](CC(C)C)C(=O)O; Morpholide = C1CN(*)CCO1; Ac5c = NC1(C(=O)O)CCCC1; Aze = O=C(O)[C@@H]1CCN1; Ac4c = NC1(C(=O)O)CCC1; Sar = CNCC(=O)O", "data": [{"smiles": "CCCN1C(=O)CN(C)C(=O)CN(C)C(=O)[C@H]([C@@H](C)CC)NC(=O)[C@H](CC(C)C)N(C)C(=O)C[C@@H](C(=O)N2CCN(C3COC3)CC2)N(C)C(=O)[C@H](C2CCCC2)N(C)C(=O)C2(CCCC2)NC(=O)[C@@H]2CCCN2C(=O)[C@H](CCc2ccc(C(F)(F)F)c(Cl)c2)NC(=O)CN(C)C(=O)[C@@H]1Cc1ccc(C(F)(F)F)cc1", "note": "[PP0175] ([NMeL]I[Sar][Sar][NPrPhe(4-CF3)][Sar][hPhe(3-Cl-4-CF3)]P[Ac5c][NMeGly(cPent)][NMeD]-{Piperazinyl(4-(3-oxetanyl))}; lactam N-11)", "values": [{"measurement": "NRAS/KRAS (ratio of KD for GDP-bound NRAS wild-type to KD for KRAS)", "setting": "[1]; KD ratio NRAS/KRAS, SPR", "result": "B (a compound having 3 or more and less than 10 is denoted as B)"}, {"measurement": "HRAS/KRAS (ratio of KD for GDP-bound HRAS wild-type to KD for KRAS)", "setting": "[2]; KD ratio HRAS/KRAS, SPR", "result": "B (a compound having 3 or more and less than 10 is denoted as B)"}]}, {"smiles": "CCO[C@@H]1C[C@H]2C(=O)NC3(CC(C)(C)C3)C(=O)N(C)[C@@H](C3CCCC3)C(=O)N(C)[C@H](C(=O)N(C)CC)CC(=O)N(C)[C@@H](COC)C(=O)N[C@@H]([C@@H](C)CC)C(=O)N(C)CC(=O)N(C)[C@H]3C/C=C\\CCN(C3=O)[C@@H](Cc3ccc(C)cc3)C(=O)N(C)CC(=O)N[C@@H](CCc3ccc(C(F)(F)F)c(Cl)c3)C(=O)N2C1", "note": "[PP2507]", "values": [{"measurement": "NRAS/KRAS (ratio of KD value with respect to NRAS to KD value with respect to KRAS)", "setting": "[1]; SPR, GDP-bound NRAS wild-type vs GDP-bound KRAS wild-type", "result": "AA (a compound having 20 or more is denoted as AA)"}, {"measurement": "HRAS/KRAS (ratio of KD value with respect to HRAS to KD value with respect to KRAS)", "setting": "[2]; SPR, GDP-bound HRAS wild-type vs GDP-bound KRAS wild-type", "result": "A (a compound having 10 or more and less than 20 is denoted as A)"}]}, {"smiles": "CCCN1C(=O)[C@@H]2CCN2C(=O)CN(C)C(=O)[C@H]([C@@H](C)CC)NC(=O)[C@H](CC(C)C)N(C)C(=O)C[C@@H](C(=O)N2CCOCC2)N(C)C(=O)[C@H](C2CCCC2)N(C)C(=O)C2(CCC2)NC(=O)[C@@H]2C[C@@H](OCC)CN2C(=O)[C@H](CCc2ccc(C(F)(F)F)c(Cl)c2)NC(=O)CN(C)C(=O)[C@@H]1Cc1ccc(C(F)(F)F)cc1", "note": "[PP0411] ([NMeL]I[Sar][Aze][NPrPhe(4-CF3)][Sar][hPhe(3-Cl-4-CF3)][Hyp](Et)[Ac4c][NMeGly(cPent)][NMeD]-Morpholide; lactam N-11)", "values": [{"measurement": "NRAS/KRAS (ratio of KD value with respect to GDP-bound NRAS wild-type protein to KD value with respect to KRAS)", "setting": "[1]; KD ratio NRAS/KRAS, SPR", "result": "C (A compound having a KD ratio of 0.1 or more and less than 3 is denoted as C)"}, {"measurement": "HRAS/KRAS (ratio of KD value with respect to GDP-bound HRAS wild-type protein to KD value with respect to KRAS)", "setting": "[2]; KD ratio HRAS/KRAS, SPR", "result": "C (A compound having a KD ratio of 0.1 or more and less than 3 is denoted as C)"}]}, {"smiles": "CCO[C@@H]1C[C@H]2C(=O)NC3(CCC3)C(=O)N(C)[C@@H](C3CCCC3)C(=O)N(C)[C@H](C(=O)N(C)CC)CC(=O)N(C)[C@H]3CCC/C=C/c4ccc(cc4)C[C@@H](C(=O)N(C)CC(=O)N[C@@H](CCc4ccc(C(F)(F)F)c(OC)c4)C(=O)N2C1)N1CC/C=C\\C[C@@H](C1=O)N(C)C(=O)CN(C)C(=O)[C@H]([C@@H](C)CC)NC3=O", "note": "[PP1834]", "values": [{"measurement": "NRAS/KRAS (ratio of KD value for NRAS to KD value for KRAS)", "setting": "[1]; [3]", "result": "A (a compound having 10 or more and less than 20 is denoted as A)"}, {"measurement": "HRAS/KRAS (ratio of KD value for HRAS to KD value for KRAS)", "setting": "[2]; [4]", "result": "B (a compound having 3 or more and less than 10 is denoted as B)"}]}, {"smiles": "CCC[C@H]1C(=O)N[C@@H]([C@@H](C)CC)C(=O)N(C)CC(=O)N(C)[C@H]2C/C=C\\CCN(C2=O)[C@@H](Cc2ccc(C(F)(F)F)cc2)C(=O)N(C)CC(=O)N[C@@H](CCc2ccc(C(F)(F)F)c(OC)c2)C(=O)N2CCCC[C@H]2C(=O)NC2(CC(C)(C)C2)C(=O)N(C)[C@@H](C(CC)CC)C(=O)N(C)[C@H](C(=O)N(C)C)CC(=O)N1C", "note": "[PP2934]", "values": [{"measurement": "NRAS/KRAS (ratio of KD value with respect to GDP-bound NRAS wild-type protein to KD value with respect to KRAS)", "setting": "[1]; KD ratio NRAS/KRAS, class symbols", "result": "AA (a compound having 20 or more is denoted as AA)"}, {"measurement": "HRAS/KRAS (ratio of KD value with respect to GDP-bound HRAS wild-type protein to KD value with respect to KRAS)", "setting": "[2]; KD ratio HRAS/KRAS, class symbols", "result": "A (a compound having 10 or more and less than 20 is denoted as A)"}]}, {"smiles": "CCCN1C(=O)[C@@H]2CCN2C(=O)CN(C)C(=O)[C@H]([C@@H](C)CC)NC(=O)[C@H](CC(C)C)N(C)C(=O)C[C@@H](C(=O)N(C)C)N(C)C(=O)[C@H](C2CCCC2)N(C)C(=O)C2(CCCC2)NC(=O)[C@@H]2C[C@@H](OCC)CN2C(=O)[C@H](CCc2ccc(C(F)(F)F)c(Cl)c2)NC(=O)CN(C)C(=O)[C@@H]1Cc1ccc(C(F)(F)F)cc1", "note": "[PP0444] ([NMeL]I[Sar][Aze][NPrPhe(4-CF3)][Sar][hPhe(3-Cl-4-CF3)][Hyp](Et)[Ac5c][NMeGly(cPent)][NMeD]-NMe2; lactam N-11)", "values": [{"measurement": "NRAS/KRAS (ratio of KD value with respect to GDP-bound NRAS wild-type protein to KD value with respect to KRAS)", "setting": "[1]; KD ratio NRAS/KRAS, SPR", "result": "C (A compound having a KD ratio of 0.1 or more and less than 3 is denoted as C)"}, {"measurement": "HRAS/KRAS (ratio of KD value with respect to GDP-bound HRAS wild-type protein to KD value with respect to KRAS)", "setting": "[2]; KD ratio HRAS/KRAS, SPR", "result": "C (A compound having a KD ratio of 0.1 or more and less than 3 is denoted as C)"}]}, {"smiles": "CCO[C@@H]1C[C@H]2C(=O)NC3(CCC3)C(=O)N(C)[C@@H](C3CCCC3)C(=O)N(C)[C@H](C(=O)N(C)C)CC(=O)N(C)[C@@H](CC)C(=O)N[C@@H]([C@@H](C)CC)C(=O)N(C)CC(=O)N(C)[C@H]3CC(C)=C(C)CN(C3=O)[C@@H](Cc3ccc(C(F)(F)F)cc3)C(=O)N(C)CC(=O)N[C@@H](CCc3cc(F)c(C(F)(F)F)c(F)c3)C(=O)N2C1", "note": "[PP1048]", "values": [{"measurement": "NRAS/KRAS (ratio of KD value with respect to NRAS to KD value with respect to KRAS)", "setting": "[1]; [3]", "result": "C (A compound having a KD ratio of 0.1 or more and less than 3 is denoted as C)"}, {"measurement": "HRAS/KRAS (ratio of KD value with respect to HRAS to KD value with respect to KRAS)", "setting": "[2]; [4]", "result": "C (A compound having a KD ratio of 0.1 or more and less than 3 is denoted as C)"}]}]}
